Here are results for 1 compound from patent US11376235B2, “Inhibitor of inflammasome activation” (KRACIE HOLDINGS, LTD., priority 2016, dated 2022).

The conditions of data set [1]: stated as a fact, no test described; cited from earlier work.
The subject of data set [2] is NLRP3 inflammasome. Description: Inflammasome activation by ATP stimulation in PMA-differentiated, LPS-treated THP1-Null cells (Test 1). The data set is classed as cell-based, human. To be noted: ATP 5 mM stimulation, arctigenin at concentrations of 10 μM and higher, 1 h pretreatment, vs Control without arctigenin, Dunnett's test. The method, then:
(§1) THP1-Null cells (Invivogen) or THP-1 cells (JCRB Cell Bank), which are NLRP3 inflammasome reporter cell lines derived from human monocytic cells, were cultured in a RPMI medium containing 10% FBS and 4.5% glucose (hereinafter referred to as a THP1 culture medium, SIGMA). The cells were treated with 500 nM PMA (SIGMA) for 3 hours to differentiate the cells into macrophages, and the cells were washed with PBS twice and then used for the following experiment.
(§2) The THP1-Null cells or the THP-1 cells after the induction of differentiation were suspended in the THP1 culture medium at 1.0×10^6 cells/mL and seeded in a 96-well microplate at 180 μL per well (1.8×10^5 cells/well). […] The IL-1β concentrations of the culture supernatants were measured using IL-1β reporter cell line HEKBlue (trademark) IL-18/IL-1β cells (Invivogen) or the ELISA method. The caspase-1 concentrations of the culture supernatants were also measured by the ELISA method.
(§3) HEK Blue (trademark) IL-18/IL-1β cells were used for measuring the IL-1β concentrations of the medium supernatants collected after the ATP treatment. […] The absorbance of each well at 655 nm was measured using a microplate reader, and the IL-1β concentration was measured. […]
(§4) Caspase-1 was measured following the TDS of Quantikine (registered trademark) ELISA Human Caspase-1/ICE (R&D systems (trademark)). […]

In data set [3] the test system is NLRP3 inflammasome. Put plainly: Inflammasome activation by MSU stimulation in PMA-differentiated, LPS-treated THP1-Null cells (Test 3). The data set is classed as cell-based, human. To be noted: MSU 100 μg/mL stimulation, 3 h, vs Control, ELISA. As to the method: as §1, §2, §3, §4
A general note: ELISA stands for enzyme-linked immunosorbent assay.

Data set [4] has as its system AIM2 inflammasome. Description: Inflammasome activation by Poly(dA:dT) stimulation in PMA-differentiated, LPS-treated THP-1 cells (Test 4). The data set is classed as cell-based, human. To be noted: Poly(dA:dT)/LyoVec 5 μg/mL stimulation, 8 h, vs Control, Student's t-test, ELISA. The method, then:
as §1, §2, §3, §4

Data set [5] deals with NLRP3 inflammasome. Description: Inflammasome activation by palmitic acid stimulation in PMA-differentiated, LPS-treated THP1-Null cells (Test 2). Type of data set: cell-based, human. The settings on record: palmitic acid 500 μM stimulation, 12 h, arctigenin 500 nM pretreatment, vs Control, Student's t-test, ELISA. The method, then:
as §1, §2, §3, §4

The structures appear in SMILES notation.

Regarding `COc1cc(C[C@H]2C(=O)OC[C@@H]2Cc2ccc(OC)c(OC)c2)ccc1O` [arctigenin], the solubility in water entry in data set [1] is recorded as “insoluble in water”. In addition, the caspase-1 amount entry in data set [2] (ELISA, FIG. 2) is “decreased with significance”; in data set [3] (arctigenin pretreatment, FIG. 6), “decreased concentration-dependently”; in data set [4] (arctigenin 250 nM pretreatment, FIG. 8), “decreased with significance”; in data set [5] (FIG. 4), “decreased with significance”. The “released IL-1β amount” value in data set [2] (HEK Blue IL-18/IL-1β reporter cells, FIG. 1) was “decreased with significance”; in data set [3] (arctigenin at concentrations of 10 μM and higher, Dunnett's test, FIG. 5), “decreased with significance”; in data set [4] (arctigenin 500 nM pretreatment, FIG. 7), “decreased with significance”; in data set [5] (FIG. 3), “decreased with significance”.
